Laboratory results: patent US20250171414A1, “COMPOUND SERVING AS MASP-2 INHIBITOR, PHARMACEUTICAL COMPOSITION, PREPARATION METHOD THEREFOR, AND USE THEREOF” (WUHAN CREATERNA SCIENCE AND TECHNOLOGY CO., LTD., priority 2022, published 2025)

Each compound was assayed on lectin pathway (MBL) in human serum (assay: Inhibition of activity of lectin pathway (MBL) in human serum (WIESLAB Complement System MBL Pathway kit)). Conditions: 1% human serum.
Format: biochemical
Description: The inhibition of the activity of the lectin pathway (MBL) in human serum by compounds was detected using a WIESLAB® Complement System MBL Pathway kit (SVAR, COMPLMP320). Test compounds were each serially diluted in a buffer (Diluent MP), and 1% human serum was incubated with the diluted compound solution for 15 min at room temperature. 100 μL of the mixture was added to a microplate and incubated at 37° C. for 60 min. The liquid in the wells was discarded, and the microplate was washed three times with a washing solution. A Conjugate antibody solution was added at 100 μL/well, and the resulting mixture was incubated for 30 min at 25° C. The liquid in the wells was discarded, and the microplate was washed three times with a washing solution; a substrate solution was added at 100 μL/well, and the resulting mixture was incubated for 30 min at 25° C.; the terminator was added at 50 μL/well, and the absorbance at 405 nm was detected within 30 min by using a microplate reader.

| IC50 [nM] | SMILES |
| --- | --- |
| 2.36 | C[C@H](NC(=O)[C@H]1CC(c2cccc(F)c2)CCN1)C(=O)NC1CCc2nc(N)ccc21 (stereo in doubt) [Compound L039-IS-02, (2R,4S)-N-((2S)-1-((2-amino-6,7-dihydro-5H-cyclopenta[b]pyridin-5-yl)amino)-1-oxopropan-2-yl)-4-(3-fluorophenyl)piperidine-2-carboxamide] |
| 12.8 | Cc1ccc(C[C@@H]2CN[C@@H](C(=O)N[C@@H](C)C(=O)NC3CCc4nc(N)ccc43)C2)cc1 (stereo partly drawn) [Compound L004, (2R,4S)—N-((2S)-1-((2-amino-6,7-dihydro-5H-cyclopenta[b]pyridin-5-yl)amino)-1-oxopropan-2-yl)-4-(4-methylbenzyl) pyrrolidine-2-carboxamide] |
| 7.08 | CC(c1ccccc1)[C@H]1CN[C@@H](C(=O)N[C@@H](C)C(=O)NC2CCc3nc(N)ccc32)C1 (stereo partly drawn) [Compound L009, (2R,4S)—N-((2S)-1-((2-amino-6,7-dihydro-5H-cyclopenta[b]pyridin-5-yl)amino)-1-oxopropan-2-yl)-4-(1-phenylethyl) pyrrolidine-2-carboxamide] |
| 7.55 | Cc1cc(C[C@@H]2CN[C@@H](C(=O)N[C@@H](C)C(=O)NC3CCc4nc(N)ccc43)C2)ccn1 (stereo partly drawn) [Compound L011, (2R,4S)—N-((2S)-1-((2-amino-6,7-dihydro-5H-cyclopenta[b]pyridin-5-yl)amino)-1-oxopropan-2-yl)-4-((2-methylpyridin-4-yl)methyl) pyrrolidine-2-carboxamide] |
| 6.62 | C[C@H](NC(=O)[C@H]1C[C@H](Cc2nc3cc(Cl)ccc3s2)CN1)C(=O)NC1CCc2nc(N)ccc21 (stereo partly drawn) [Compound L013, (2R,4R)—N-((2S)-1-((2-amino-6,7-dihydro-5H-cyclopenta[b]pyridin-5-yl)amino)-1-oxopropan-2-yl)-4-((5-chlorobenzo[d]thiazol-2-yl)methyl) pyrrolidine-2-carboxamide] |
| 1.99 | COc1cc2ccccc2cc1C[C@@H]1CN[C@@H](C(=O)N[C@@H](C)C(=O)NC2CCc3nc(N)ccc32)C1 (stereo partly drawn) [Compound L015, (2R,4S)—N-((2S)-1-((2-amino-6,7-dihydro-5H-cyclopenta[b]pyridin-5-yl)amino)-1-oxopropan-2-yl)-4-((3-methoxynaphthalen-2-yl)methyl) pyrrolidine-2-carboxamide] |
| 4.64 | Cc1cccc(C[C@@H]2CN[C@@H](C(=O)N[C@@H](C)C(=O)NC3CCc4nc(N)ccc43)C2)c1 (stereo partly drawn) [Compound L016, (2R,4S)—N-((2S)-1-((2-amino-6,7-dihydro-5H-cyclopenta[b]pyridin-5-yl)amino)-1-oxopropan-2-yl)-4-(3-methylbenzyl) pyrrolidine-2-carboxamide] |
| 6.96 | C[C@H](NC(=O)[C@H]1C[C@H](C2(c3ccccc3)CC2)CN1)C(=O)NC1CCc2nc(N)ccc21 (stereo partly drawn) [Compound L017, (2R,4R)—N-((2S)-1-((2-amino-6,7-dihydro-5H-cyclopenta[b]pyridin-5-yl)amino)-1-oxopropan-2-yl)-4-(1-phenylcyclopropyl) pyrrolidine-2-carboxamide] |
| 15 | C[C@H](NC(=O)c1cc(-c2ccccc2)c[nH]1)C(=O)N[C@@H]1CCc2nc(N)ccc21 [Compound L020-IS-01, N—((S)-1-(((R)-2-amino-6,7-dihydro-5H-cyclopenta[b]pyridin-5-yl)amino)-1-oxopropan-2-yl)-4-phenyl-1H-pyrrole-2-carboxamide] |
| 3.75 | C[C@H](NC(=O)C1CC(c2ccccc2)CCN1)C(=O)NC1CCc2nc(N)ccc21 (stereo partly drawn) [Compound L021, N-((2S)-1-((2-amino-6,7-dihydro-5H-cyclopenta[b]pyridin-5-yl)amino)-1-oxopropan-2-yl)-4-phenylpiperidine-2-carboxamide] |
| 0.26 | C[C@H](NC(=O)[C@H]1C[C@@H](c2ccccc2)CCN1)C(=O)NC1CCc2nc(N)ccc21 (stereo partly drawn) [Compound L021-IS-01, (2R,4S)—N-((2S)-1-((2-amino-6,7-dihydro-5H-cyclopenta[b]pyridin-5-yl)amino)-1-oxopropan-2-yl)-4-phenylpiperidine-2-carboxamide] |
| 6.34 | C[C@H](NC(=O)[C@H]1CN(Cc2ccccc2)CCN1)C(=O)NC1CCc2nc(N)ccc21 (stereo partly drawn) [Compound L024, (2R)—N-((2S)-1-((2-amino-6,7-dihydro-5H-cyclopenta[b]pyridin-5-yl)amino)-1-oxopropan-2-yl)-4-benzylpiperazine-2-carboxamide] |
| 5.52 | C[C@H](NC(=O)[C@H]1CN(c2cccc3ccccc23)CCN1)C(=O)NC1CCc2nc(N)ccc21 (some centres unmarked) [Compound L025] |
| 4.49 | Nc1ccc2c(n1)CCC2NC(=O)[C@@H]1CCCN1C(=O)[C@H]1C[C@H](Cc2ccc(F)cc2)CN1 (stereo partly drawn) [Compound L031, (2S)—N-(2-amino-6,7-dihydro-5H-cyclopenta[b]pyridin-5-yl)-1-((2R,4S)-4-(4-fluorobenzyl)pyrrolidine-2-carbonyl) pyrrolidine-2-carboxamide] |
| 1.83 | C[C@H](NC(=O)[C@H]1C[C@@H](c2cccc(C(F)(F)F)c2)CCN1)C(=O)NC1CCc2nc(N)ccc21 (stereo partly drawn) [Compound L044-IS-02, (2R,4S)-N-((2S)-1-((2-amino-6,7-dihydro-5H-cyclopenta[b]pyridin-5-yl)amino)-1-oxopropan-2-yl)-4-(3-(trifluoromethyl)phenyl)piperidine-2-carboxamide] |
| 4.11 | C[C@H](NC(=O)[C@H]1C[C@@H](c2ccc(F)c(F)c2)CCN1)C(=O)NC1CCc2nc(N)ccc21 (stereo partly drawn) [Compound L045-IS-02, (2R,4S)-N-((2S)-1-((2-amino-6,7-dihydro-5H-cyclopenta[b]pyridin-5-yl)amino)-1-oxopropan-2-yl)-4-(3,4-difluorophenyl)piperidine-2-carboxamide] |
| 3.71 | C[C@H](NC(=O)[C@H]1C[C@@H](c2cccc(OC(F)(F)F)c2)CCN1)C(=O)NC1CCc2nc(N)ccc21 (stereo partly drawn) [Compound L046-IS-02, (2R,4S)-N-((2S)-1-((2-amino-6,7-dihydro-5H-cyclopenta[b]pyridin-5-yl)amino)-1-oxopropan-2-yl)-4-(3-(trifluoromethoxy)phenyl)piperidine-2-carboxamide] |
| 3.06 | C[C@H](NC(=O)[C@H]1C[C@@H](c2ccc(F)cc2F)CCN1)C(=O)NC1CCc2nc(N)ccc21 (stereo partly drawn) [Compound L047-IS-02, (2R,4S)-N-((2S)-1-((2-amino-6,7-dihydro-5H-cyclopenta[b]pyridin-5-yl)amino)-1-oxopropan-2-yl)-4-(2,4-difluorophenyl)piperidine-2-carboxamide] |
| 6.08 | C[C@H](NC(=O)[C@H]1C[C@@H](c2cccc(F)c2F)CCN1)C(=O)NC1CCc2nc(N)ccc21 (stereo partly drawn) [Compound L048-IS-02, (2R,4S)-N-((2S)-1-((2-amino-6,7-dihydro-5H-cyclopenta[b]pyridin-5-yl)amino)-1-oxopropan-2-yl)-4-(2,3-difluorophenyl)piperidine-2-carboxamide] |
| 7 | Nc1ccc2c(n1)CC[C@H]2NC(=O)[C@H]1[C@H]2C[C@H]2CN1C(=O)[C@H]1C[C@H](Cc2ccc(F)cc2)CN1 [Compound L055-IS-02, (1S,2R,5R)—N—((R)-2-amino-6,7-dihydro-5H-cyclopenta [b]pyridin-5-yl)-3-((2R,4S)-4-(4-fluorobenzyl)pyrrolidine-2-carbonyl)-3-azabicyclo[3.1.0]hexane-2-carboxamide] |
| 17.6 | C[C@H](NC(=O)[C@@H]1C=C(c2ccc(F)c(C(F)(F)F)c2)CCN1)C(=O)N[C@@H]1CCc2nc(N)ccc21 [Compound L070-IS-02, (S)-N-((S)-1-(((R)-2-amino-6,7-dihydro-5H-cyclopenta[b]pyridin-5-yl)amino)-1-oxopropan-2-yl)-4-(4-fluoro-3-(trifluoromethyl)phenyl)-1,2,5,6-tetrahydropyridine-2-carboxamide] |
| 4.25 | C[C@H](NC(=O)[C@@H]1C=C(c2ccc(F)cc2C(F)(F)F)CCN1)C(=O)N[C@@H]1CCc2nc(N)ccc21 [Compound L073-IS-02, (S)-N-((S)-1-(((R)-2-amino-6,7-dihydro-5H-cyclopenta[b]pyridin-5-yl)amino)-1-oxopropan-2-yl)-4-(4-fluoro-2-(trifluoromethyl)phenyl)-1,2,5,6-tetrahydropyridine-2-carboxamide] |

| SMILES | IC50 [nM] |
| --- | --- |
| Cc1cc(C2=C[C@@H](C(=O)N[C@@H](C)C(=O)N[C@@H]3CCc4nc(N)ccc43)NCC2)ccc1F (single isomer, unassigned) [Compound L071-IS-02] | 7.85 |
| C[C@H](NC(=O)[C@H]1C[C@@H](c2ccc(F)cc2)CCN1)C(=O)NC1CCc2nc(N)ccc21 (stereo partly drawn) [Compound L033-IS-02, (2R,4S)—N-((2S)-1-((2-amino-6,7-dihydro-5H-cyclopenta[b]pyridin-5-yl)amino)-1-oxopropan-2-yl)-4-(4-fluorophenyl) piperidine-2-carboxamide] | 2.26 |
| C[C@H](NC(=O)[C@H]1C[C@@H](c2ccccc2F)CCN1)C(=O)NC1CCc2nc(N)ccc21 (stereo partly drawn) [Compound L038-IS-02, (2R,4S)—N-((2S)-1-((2-amino-6,7-dihydro-5H-cyclopenta[b]pyridin-5-yl)amino)-1-oxopropan-2-yl)-4-(2-fluorophenyl) piperidine-2-carboxamide] | 4.76 |
| C[C@H](NC(=O)[C@@H]1C=C(c2ccc(F)c(Cl)c2)CCN1)C(=O)N[C@@H]1CCc2nc(N)ccc21 [Compound L072-IS-02, (S)-N-((S)-1-(((R)-2-amino-6,7-dihydro-5H-cyclopenta[b]pyridin-5-yl)amino)-1-oxopropan-2-yl)-4-(3-chloro-4-fluorophenyl)-1,2,5,6-tetrahydropyridine-2-carboxamide] | 9.26 |
